According to PMC10969742, “A Phase I Study of the Oral Dual-Acting Pan-PI3K/mTOR Inhibitor Bimiralisib in Patients with Advanced Solid Tumors” (Cancers, 2024):
Entries after “also recorded” stand apart in the source; their conditions may differ.

What was measured:
[1] = tested on: patients with advanced solid tumors; test: Phase 1 3 + 3 dose escalation: DLTs and MTD determination; type: in vivo
Protocol: The primary objective of the study was to determine the MTD of bimiralisib administered according to three different dosing schedules. Bimiralisib was formulated as 20 mg and 80 mg capsules for oral administration. The first dosing schedule to be evaluated was continuous (once daily) dosing over a 21-day cycle. […] Patients enrolled in the continuous schedule and intermittent schedule A received a single lead-in dose, administered on […] prior to the start of the first 21-day treatment cycle, to characterize single-dose pharmacokinetics. Based on the previous first-in-human trial with bimiralisib, together with the expected toxicity profile of PI3K/mTOR inhibitors, the starting dose (dose-level 1) of bimiralisib in Study PQR309-003 was set at 80 mg daily.
Enrollment of cohorts into the dose escalation followed a typical 3 + 3 design, with escalation/de-escalation based on the dose-limiting toxicities observed as described in Table 1 and Table 2. Up to 5 dose levels were planned in the continuous schedule to a maximum of 180 mg daily. For the intermittent schedules, up to 7 dose levels were planned, to a maximum of 240 mg daily. One dose level for de-escalation was planned for all schedules. Patient cohorts, consisting initially of three patients, were enrolled depending on the safety and tolerability of the initial cohort. Patients were treated until disease progression, unacceptable toxicity, patient’s request for withdrawal, investigator judgment, or death, whichever came first.
Safety was monitored by physical examination, vital signs, weight, electrocardiogram, ECOG performance status, laboratory evaluations (including glucose monitoring), and patient self-reported mood questionnaires, as well as AEs. All AEs were coded with NCI Common Terminology Criteria for Adverse Events (CTCAE) v4.03 [27]. The MTD was defined as the maximum dose level at which ≤1/6 patients have DLTs. A DLT was defined by the occurrence of grade 3 or 4 AE that is possibly, probably, or definitely related to bimiralisib within the first 21 days of treatment. Bimiralisib treatment was interrupted if patients experienced any DLTs. If the patient derived benefit from the treatment as determined by the investigator, treatment could be resumed at a lower dose in agreement with the study sponsor.

advanced solid tumors = test: Efficacy: objective tumor response per RECIST 1.1; type: in vivo, human
Protocol: Efficacy of treatment was determined by measuring reported lesions at baseline and after every 2 cycles.

[2] = PR patient, head and neck squamous cancer, NOTCH1T1997M, intermittent schedule A 200 mg

Question: Nc1cc(C(F)(F)F)c(-c2nc(N3CCOCC3)nc(N3CCOCC3)n2)cn1 [bimiralisib, 5-(4,6-Dimorpholino-1,3,5-triazin-2-yl)-4-(trifluoromethyl)pyridin-2-amine] was tested. Which “Maximum tolerated dose (MTD)” value ([1]; continuous schedule (once daily)) did it give?
Answer: 80 mg

Question: What about the “Dose-limiting toxicity (DLT), kind” value ([1]; in vivo) of the same compound?
Answer: grade three fatigue

Question: And the “Patients with dose interruptions or discontinuation due to treatment-related AEs during first 21-day dosing cycle” value ([1]; in vivo)?
Answer: Four of these five

Question: And the “Maximum tolerated dose (MTD)” value ([1]; intermittent schedules A and B, up to 200 mg)?
Answer: No MTD was reached; also recorded: neither intermittent schedule reached MTD

Question: And the “Best Overall Response: Complete response (CR), Number of Patients” value (“Best Overall Response: Complete response” for short) (advanced solid tumors; All Schedules, n = 70)?
Answer: 0 n (%)

Question: What about the “Best Overall Response: Missing (response could not be assessed), Number of Patients” value (advanced solid tumors; All Schedules, n = 70) of the same compound?
Answer: 16 (22.9%) n (%)

Question: What about the “Best Overall Response: Non-CR/Non-PD, Number of Patients” value (“Best Overall Response: Non-CR/Non-PD” for short) (advanced solid tumors; All Schedules, n = 70) of the same compound?
Answer: 4 (5.7%) n (%)

Question: What about the “Best Overall Response: Partial response, Number of Patients” value (“Best Overall Response: Partial response” below) (advanced solid tumors; All Schedules, n = 70) of the same compound?
Answer: 1 (1.4%) n (%)

Question: What about the “Best Overall Response: Progressive disease (PD), Number of Patients” value (advanced solid tumors; All Schedules, n = 70) of the same compound?
Answer: 19 (27.1%) n (%)

Question: And the “Best Overall Response: Stable disease, Number of Patients” value (from here on “Best Overall Response: Stable disease”) (advanced solid tumors; All Schedules, n = 70)?
Answer: 30 (43%) n (%)

Question: What about the “Best Overall Response: Complete response” value (advanced solid tumors; Continuous (n = 21)) of the same compound?
Answer: 0 n (%)

Question: And the “Best Overall Response: Missing (response could not be assessed), Number of Patients” value (advanced solid tumors; Continuous (n = 21))?
Answer: 9 (42.9%) n (%)

Question: What about the “Best Overall Response: Non-CR/Non-PD” value (advanced solid tumors; Continuous (n = 21)) of the same compound?
Answer: 0 n (%)

Question: And the “Best Overall Response: Partial response” value (advanced solid tumors; Continuous (n = 21))?
Answer: 0 n (%)

Question: And the “Best Overall Response: Progressive disease (PD), Number of Patients” value (advanced solid tumors; Continuous (n = 21))?
Answer: 7 (33.3%) n (%)

Question: What about the “Best Overall Response: Stable disease” value (advanced solid tumors; Continuous (n = 21)) of the same compound?
Answer: 5 (23.8%) n (%)

Question: What about the “Best Overall Response: Complete response” value (advanced solid tumors; Intermittent A, n = 25) of the same compound?
Answer: 0 n (%)

Question: What about the “Best Overall Response: Missing (response could not be assessed), Number of Patients” value (advanced solid tumors; Intermittent A, n = 25) of the same compound?
Answer: 5 (20%) n (%)

Question: What about the “Best Overall Response: Non-CR/Non-PD” value (advanced solid tumors; Intermittent A, n = 25) of the same compound?
Answer: 1 (4%) n (%)

Question: What about the “Best Overall Response: Partial response” value (advanced solid tumors; Intermittent A, n = 25) of the same compound?
Answer: 1 (4%) n (%)

Question: What about the “Best Overall Response: Progressive disease (PD), Number of Patients” value (advanced solid tumors; Intermittent A, n = 25) of the same compound?
Answer: 6 (24%) n (%)

Question: What about the “Best Overall Response: Stable disease” value (advanced solid tumors; Intermittent A, n = 25) of the same compound?
Answer: 12 (48%) n (%)

Question: And the “Best Overall Response: Complete response” value (advanced solid tumors; Intermittent B, n = 24)?
Answer: 0 n (%)

Question: And the “Best Overall Response: Missing (response could not be assessed), Number of Patients” value (advanced solid tumors; Intermittent B, n = 24)?
Answer: 2 (8.3%) n (%)

Question: And the “Best Overall Response: Non-CR/Non-PD” value (advanced solid tumors; Intermittent B, n = 24)?
Answer: 3 (12.5%) n (%)

Question: What about the “Best Overall Response: Partial response” value (advanced solid tumors; Intermittent B, n = 24) of the same compound?
Answer: 0 n (%)

Question: And the “Best Overall Response: Progressive disease (PD), Number of Patients” value (advanced solid tumors; Intermittent B, n = 24)?
Answer: 6 (25%) n (%)

Question: And the “Best Overall Response: Stable disease” value (advanced solid tumors; Intermittent B, n = 24)?
Answer: 13 (54.2%) n (%)

Question: What about the Duration of response (advanced solid tumors; [2]) of the same compound?
Answer: 8.4 months

Question: And the “Reduction in sum of target lesions per RECIST 1.1” value (advanced solid tumors; [2])?
Answer: 85%

Question: And the Time to response (advanced solid tumors; [2])?
Answer: 45 days

Question: What about the “Patients with PR as best overall response” value (advanced solid tumors; all 70 patients) of the same compound?
Answer: 1.4%

Question: And the “Complete response (CR)” value (advanced solid tumors; all patients)?
Answer: No patient achieved CR

Question: What about the “Patients with SD” value (advanced solid tumors; all patients, 30 patients) of the same compound?
Answer: 43.0%

Question: What about the “Number of partial responses” value (advanced solid tumors; all patients, head and neck squamous cancer patient with NOTCH1T1997M mutation) of the same compound?
Answer: one

Question: What about the “Patients with SD” value (advanced solid tumors; continuous dosing) of the same compound?
Answer: 23.8%

Question: What about the “Best overall response of single patient” value (advanced solid tumors; head and neck squamous cancer, loss of function NOTCH1T1997M mutation, intermittent schedule A 200 mg) of the same compound?
Answer: partial response

Question: And the “Patients with SD” value (advanced solid tumors; intermittent schedule A)?
Answer: 48.0%

Question: And the “Patients with SD” value (advanced solid tumors; intermittent schedule B)?
Answer: 54.2%
